What was measured:
[1] = Water-solubility of human C-peptide; format: physicochemical; details: observed when preparing formulations; phase-separation methods gave high losses of active substance
[2] = cited from earlier work

water-solubility [1]: strong water-solubility
SMILES: CC(C)C[C@H](NC(=O)[C@H](C)NC(=O)[C@H](CC(C)C)NC(=O)[C@@H]1CCCN1C(=O)[C@H](CCC(N)=O)NC(=O)[C@H](CC(C)C)NC(=O)[C@H](CO)NC(=O)CNC(=O)[C@H](C)NC(=O)CNC(=O)[C@@H]1CCCN1C(=O)CNC(=O)CNC(=O)CNC(=O)[C@H](CC(C)C)NC(=O)[C@H](CCC(=O)O)NC(=O)[C@@H](NC(=O)[C@H](CCC(N)=O)NC(=O)CNC(=O)[C@@H](NC(=O)[C@H](CCC(N)=O)NC(=O)[C@H](CC(C)C)NC(=O)[C@H](CC(=O)O)NC(=O)[C@H](CCC(=O)O)NC(=O)[C@H](C)NC(=O)[C@@H](N)CCC(=O)O)C(C)C)C(C)C)C(=O)N[C@@H](CCC(=O)O)C(=O)NCC(=O)N[C@@H](CO)C(=O)N[C@@H](CC(C)C)C(=O)N[C@@H](CCC(N)=O)C(=O)O [C-peptide]
half-life of plasma in humans [2]: about 40 minutes

From US20040053817A1, “Delayed-release pharmaceutical formulations” (priority 2000, published 2004)
